Assay: recombinant barcode read abundance after kanamycin selection (control-corrected) (log10(CPM+1)); higher = more efficient recombination; sequences stand for … in AGTGCAGAGAAAATCGGCCAGTTTTCTCTGCCTGCAGTCCGCATGCCGT…AGATTTATGCAGCGGACTGCCTTTCTCCCAAAGTGATAAACCGGACAGTATCATGGACCGGTTTTCCCGGTAATCCGTATTTGCAAGGTTGGTTTCACT; site = the 11-nt target
Summary of the method: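 Duplicate cultures were plated either on chloramphenicol/ampicillin LB agar, serving as control, or on chloramphenicol/ampicillin/kanamycin with 0.1 mM IPTG. These came from a pooled E. coli library co-electroporated with a donor plasmid, each member pairing a target with an IS621 bridge RNA target-binding loop. Recombination efficiency equals averaged, control-corrected counts per million of recombinant-junction barcodes. It is listed as log10(CPM+1).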
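Also: IS621 recombinase and bridge RNA in Escherichia coli cells.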

| Sequence | recombinant barcode read abundance (log10) |
| --- | --- |
| GCGGATCCTTGGGTTCTAACCTGTTGCCT (site GCGGATCCTAG) | 2.11 |
| GCGGATCCTTGGGTTCTAACCTGTTGCCT (site GCGTATCCTAG) | 1.05 |
| GCGGCGACTTGGGTTCTAACCTGTTGCCT (site GCAGCGACTAG) | 0.291 |
| GCGGCGACTTGGGTTCTAACCTGTTGCCT (site GCCGCGACTAG) | 0.162 |
| GCGGCGACTTGGGTTCTAACCTGTTGCCT (site GCGGCGACTAG) | 0.891 |
| GCGGCGACTTGGGTTCTAACCTGTTGCCT (site GCTGCGACTAG) | 0.0436 |
| GCGGGATCTTGGGTTCTAACCTGTTGCCT (site ACGGGATCTAG) | 0.765 |
| GCGGGATCTTGGGTTCTAACCTGTTGCCT (site CCGGGATCTAG) | 0.258 |
| GCGGGATCTTGGGTTCTAACCTGTTGCCT (site GCGGGATCTAG) | 1.06 |
| GCGGGATCTTGGGTTCTAACCTGTTGCCT (site TCGGGATCTAG) | 0.174 |
| GCGGGGTCTTGGGTTCTAACCTGTTGCTT (site GCAGGGTCTAA) | 2.65 |
| GCGGGGTCTTGGGTTCTAACCTGTTGCTT (site GCCGGGTCTAA) | 0.124 |
| GCGGGGTCTTGGGTTCTAACCTGTTGCTT (site GCGGGGTCTAA) | 2.2 |
| GCGGGGTCTTGGGTTCTAACCTGTTGCTT (site GCTGGGTCTAA) | 0.783 |
| GCGGGTCCTTGGGTTCTAACCTGTTGCCT (site GCAGGTCCTAG) | 2.24 |
| GCGGGTCCTTGGGTTCTAACCTGTTGCCT (site GCCGGTCCTAG) | 0.213 |
| GCGGGTCCTTGGGTTCTAACCTGTTGCCT (site GCGGGTCCTAG) | 2.15 |
| GCGGGTCCTTGGGTTCTAACCTGTTGCCT (site GCTGGTCCTAG) | 0.532 |
| GCGTCACCTTGGGTTCTAACCTGTTGCCT (site ACGTCACCTAG) | 0.0445 |
| GCGTCACCTTGGGTTCTAACCTGTTGCCT (site CCGTCACCTAG) | 0.0376 |
| GCGTCACCTTGGGTTCTAACCTGTTGCCT (site GCGTCACCTAG) | 0.394 |
| GCGTCACCTTGGGTTCTAACCTGTTGCCT (site TCGTCACCTAG) | 0.382 |

| Sequence | recombinant barcode read abundance (log10) |
| --- | --- |
| GCGTGAGCTTGGGTTCTAACCTGTTGCCT (site GCATGAGCTAG) | 1.07 |
| GCGTGAGCTTGGGTTCTAACCTGTTGCCT (site GCCTGAGCTAG) | 0.151 |
| GCGTGAGCTTGGGTTCTAACCTGTTGCCT (site GCGTGAGCTAG) | 0.676 |
| GCGTGAGCTTGGGTTCTAACCTGTTGCCT (site GCTTGAGCTAG) | 0.0594 |
| GCGTGTCCTTGGGTTCTAACCTGTTGCCA (site CCGTGTCCTCG) | 0.0431 |
| GCGTGTCCTTGGGTTCTAACCTGTTGCCA (site GCGTGTCCTTG) | 0.335 |
| GCGTTGCCTTGGGTTCTAACCTGTTGCCT (site GAGTTGCCTAG) | 0.073 |
| GCGTTGCCTTGGGTTCTAACCTGTTGCCT (site GCGTTGCCTAG) | 0.213 |
| GCGTTGCCTTGGGTTCTAACCTGTTGCCT (site GGGTTGCCTAG) | 0.0557 |
| GCGTTGCCTTGGGTTCTAACCTGTTGCCT (site GTGTTGCCTAG) | 0.0893 |
| GCTAGTCCTTGGGTTCTAACCTGTTGCTG (site GCTAGTCCTAC) | 0.537 |
| GCTAGTCCTTGGGTTCTAACCTGTTGCTG (site GCTAGTCCTCA) | 0.83 |
| GCTCAGGCTTGGGTTCTAACCTGTTGCCT (site GCTCAGACTAG) | 0.142 |
| GCTCAGGCTTGGGTTCTAACCTGTTGCCT (site GCTCAGCCTAG) | 0.114 |
| GCTCAGGCTTGGGTTCTAACCTGTTGCCT (site GCTCAGGCTAG) | 0.216 |
| GCTCAGGCTTGGGTTCTAACCTGTTGCCT (site GCTCAGTCTAG) | 0.202 |
| GCTCGTCCTTGGGTTCTAACCTGTTGCAT (site GCTCGTCCTAT) | 1.03 |
| GCTCGTCCTTGGGTTCTAACCTGTTGCAT (site GCTGGACCTAT) | 0.0399 |
| GCTCTCCCTTGGGTTCTAACCTGTTGCCT (site GCACTCCCTAG) | 0.0891 |
| GCTCTCCCTTGGGTTCTAACCTGTTGCCT (site GCCCTCCCTAG) | 0.388 |
| GCTCTCCCTTGGGTTCTAACCTGTTGCCT (site GCGCTCCCTAG) | 0.253 |
| GCTCTCCCTTGGGTTCTAACCTGTTGCCT (site GCTCTCCCTAG) | 0.305 |

| Sequence | recombinant barcode read abundance (log10) |
| --- | --- |
| GCTGGACCTTGGGTTCTAACCTGTTGCCT (site ACTGGACCTAA) | 0.179 |
| GCTGGACCTTGGGTTCTAACCTGTTGCCT (site GCTGGACCTAG) | 2.15 |
| GCTTCACCTTGGGTTCTAACCTGTTGCCT (site GCTTCACCTAG) | 0.853 |
| GCTTCACCTTGGGTTCTAACCTGTTGCCT (site GCTTTACCTAA) | 0.103 |
| GCTTGGACTTGGGTTCTAACCTGTTGCAT (site GCTTGGACTAT) | 1.29 |
| GCTTGGACTTGGGTTCTAACCTGTTGCAT (site GTTTGGACTCT) | 0.0332 |
| GCTTTACCTTGGGTTCTAACCTGTTGCTT (site GCTTCACCTAG) | 0.132 |
| GCTTTACCTTGGGTTCTAACCTGTTGCTT (site GCTTTACCTAA) | 0.368 |
| GCTTTGACTTGGGTTCTAACCTGTTGCCT (site GCTTGGACTAG) | 0.0213 |
| GCTTTGACTTGGGTTCTAACCTGTTGCCT (site GCTTTGACTAG) | 0.788 |
| GGAAAGACTTGGGTTCTAACCTGTTGCAC (site GGAAAGACTGT) | 2.02 |
| GGAAAGACTTGGGTTCTAACCTGTTGCAC (site TACCGCCCTAC) | 0.128 |
| GGAACCTCTTGGGTTCTAACCTGTTGCTT (site GGAACCTCTAA) | 0.697 |
| GGAACCTCTTGGGTTCTAACCTGTTGCTT (site GGAACGTCTAA) | 0.0112 |
| GGAAGACCTTGGGTTCTAACCTGTTGCTA (site GGAAGACCTTA) | 0.956 |
| GGAAGACCTTGGGTTCTAACCTGTTGCTA (site GGAGGACCTAA) | 0.246 |
| GGAATCCCTTGGGTTCTAACCTGTTGCCT (site GGAATACCTAG) | 0.0974 |
| GGAATCCCTTGGGTTCTAACCTGTTGCCT (site GGAATCCCTAG) | 1.64 |
| GGAATCCCTTGGGTTCTAACCTGTTGCCT (site GGAATGCCTAG) | 0.463 |
| GGAATCCCTTGGGTTCTAACCTGTTGCCT (site GGAATTCCTAG) | 0.0836 |
| GGACAGTCTTGGGTTCTAACCTGTTGCGT (site CCGGTCCCTCT) | 0.485 |
| GGACAGTCTTGGGTTCTAACCTGTTGCGT (site GGACAGTCTAC) | 2.56 |

Reference: the supplement of paper PMC11208160
